From patent US12077503B2, “Substituted cyclic amides and their use as herbicides” (FMC CORPORATION, priority 2015, dated 2024)

Columns and labels:
Type in all cases: in vivo
corn (Zea mays) [1] = experiment: Test G Post-Emergence Protocol; conditions: Zea mays, post-emergence, 312 h, read-out: Corn damage rating; for plant injury at 15.625 g/ha: 15.625 g ai/ha, evaluated after 13 days (100=total damage to plant; 0=no damage to plant); for plant injury at 62.5 g/ha: 62.5 g ai/ha; for plant injury at 62.5 g/ha / plant injury at 250 g/ha: evaluated after 13 days, 100=total damage to plant, 0=no damage to plant; for plant injury at 250 g/ha: 250 g ai/ha
How it was run: (§1)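 Eight days post-sowing, plants received a spray of test compound (acetone/water 50:50, 0.5% Tween 20) at 15.625, 62.5 or 250 g/ha. Glasshouse regime thereafter: 24/16 °C, 14 h light, 65% humidity. Assessment after 13 days on a 0–100 damage scale.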

[2] = test system: redroot pigweed (Amaranthus retroflexus); experiment: Test G Post-Emergence Protocol; conditions: Amaranthus retroflexus, post-emergence, 312 h, read-out: Pigweed, Redroot damage rating; for pest or weed control at 15.625 g/ha: 15.625 g ai/ha, evaluated after 13 days (100=total damage to plant; 0=no damage to plant); for pest or weed control at 62.5 g/ha: 62.5 g ai/ha; for pest or weed control at 62.5 g/ha / pest or weed control at 250 g/ha: evaluated after 13 days, 100=total damage to plant, 0=no damage to plant; for pest or weed control at 250 g/ha: 250 g ai/ha
How it was run: as §1

[3] = test system: giant foxtail (Setaria faberi); experiment: Test G Post-Emergence Protocol; conditions: Setaria faberi, post-emergence, 312 h, read-out: Foxtail, Giant damage rating; for pest or weed control at 15.625 g/ha: 15.625 g ai/ha, evaluated after 13 days (100=total damage to plant; 0=no damage to plant); for pest or weed control at 62.5 g/ha: 62.5 g ai/ha; for pest or weed control at 62.5 g/ha / pest or weed control at 250 g/ha: evaluated after 13 days, 100=total damage to plant, 0=no damage to plant; for pest or weed control at 250 g/ha: 250 g ai/ha
How it was run: as §1

[4] = test system: ivy-leaved morning glory (Ipomoea hederacea); experiment: Test G Post-Emergence Protocol; conditions: Ipomoea, post-emergence, 312 h, read-out: Morningglory, Ivy-leaved damage rating; for pest or weed control at 15.625 g/ha: 15.625 g ai/ha, evaluated after 13 days (100=total damage to plant; 0=no damage to plant); for pest or weed control at 62.5 g/ha: 62.5 g ai/ha; for pest or weed control at 62.5 g/ha / pest or weed control at 250 g/ha: evaluated after 13 days, 100=total damage to plant, 0=no damage to plant; for pest or weed control at 250 g/ha: 250 g ai/ha
How it was run: as §1

[5] = test system: velvetleaf (Abutilon theophrasti); experiment: Test G Post-Emergence Protocol; conditions: Abutilon theophrasti, post-emergence, 312 h, read-out: Velvetleaf damage rating; for pest or weed control at 15.625 g/ha: 15.625 g ai/ha, evaluated after 13 days (100=total damage to plant; 0=no damage to plant); for pest or weed control at 62.5 g/ha: 62.5 g ai/ha; for pest or weed control at 62.5 g/ha / pest or weed control at 250 g/ha: evaluated after 13 days, 100=total damage to plant, 0=no damage to plant; for pest or weed control at 250 g/ha: 250 g ai/ha
How it was run: as §1

[6] = test system: barnyardgrass (Echinochloa crus-galli); experiment: Test G Post-Emergence Protocol; conditions: Echinochloa crus-galli, post-emergence, 312 h, read-out: Barnyardgrass damage rating; for pest or weed control at 15.625 g/ha: 15.625 g ai/ha, evaluated after 13 days (100=total damage to plant; 0=no damage to plant); for pest or weed control at 62.5 g/ha: 62.5 g ai/ha; for pest or weed control at 62.5 g/ha / pest or weed control at 250 g/ha: evaluated after 13 days, 100=total damage to plant, 0=no damage to plant; for pest or weed control at 250 g/ha: 250 g ai/ha
How it was run: as §1

corn (Zea mays) [7] = experiment: Test G Pre-Emergence Protocol; conditions: Zea mays, pre-emergence, 312 h, evaluated after 13 days; for plant injury at 15.625 g/ha: 15.625 g ai/ha; for plant injury at 15.625 g/ha / plant injury at 250 g/ha: read-out: Corn damage rating (100=total damage to plant; 0=no damage to plant); for plant injury at 62.5 g/ha: 62.5 g ai/ha, 100=total damage to plant, 0=no damage to plant, read-out: Corn damage rating; for plant injury at 250 g/ha: 250 g ai/ha
How it was run: (§2)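 Glasshouse pre-emergence test: soil-sown seeds, sprayed after 1 d at 15.625, 62.5 or 250 g/ha. Conditions 24/16° C day/night, 14 h light, 65% humidity, watering twice daily. Rating 13 d post-spray (100 = total damage).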

[8] = test system: redroot pigweed (Amaranthus retroflexus); experiment: Test G Pre-Emergence Protocol; conditions: Amaranthus retroflexus, pre-emergence, 312 h, evaluated after 13 days; for pest or weed control at 15.625 g/ha: 15.625 g ai/ha; for pest or weed control at 15.625 g/ha / pest or weed control at 250 g/ha: read-out: Pigweed, Redroot damage rating (100=total damage to plant; 0=no damage to plant); for pest or weed control at 62.5 g/ha: 62.5 g ai/ha, 100=total damage to plant, 0=no damage to plant, read-out: Pigweed, Redroot damage rating; for pest or weed control at 250 g/ha: 250 g ai/ha
How it was run: as §2

[9] = test system: giant foxtail (Setaria faberi); experiment: Test G Pre-Emergence Protocol; conditions: Setaria faberi, pre-emergence, 312 h, evaluated after 13 days; for pest or weed control at 15.625 g/ha: 15.625 g ai/ha; for pest or weed control at 15.625 g/ha / pest or weed control at 250 g/ha: read-out: Foxtail, Giant damage rating (100=total damage to plant; 0=no damage to plant); for pest or weed control at 62.5 g/ha: 62.5 g ai/ha, 100=total damage to plant, 0=no damage to plant, read-out: Foxtail, Giant damage rating; for pest or weed control at 250 g/ha: 250 g ai/ha
How it was run: as §2

[10] = test system: ivy-leaved morning glory (Ipomoea hederacea); experiment: Test G Pre-Emergence Protocol; conditions: Ipomoea, pre-emergence, 312 h, evaluated after 13 days; for pest or weed control at 15.625 g/ha: 15.625 g ai/ha; for pest or weed control at 15.625 g/ha / pest or weed control at 250 g/ha: read-out: Morningglory, Ivy-leaved damage rating (100=total damage to plant; 0=no damage to plant); for pest or weed control at 62.5 g/ha: 62.5 g ai/ha, 100=total damage to plant, 0=no damage to plant, read-out: Morningglory, Ivy-leaved damage rating; for pest or weed control at 250 g/ha: 250 g ai/ha
How it was run: as §2

[11] = test system: velvetleaf (Abutilon theophrasti); experiment: Test G Pre-Emergence Protocol; conditions: Abutilon theophrasti, pre-emergence, 312 h, evaluated after 13 days; for pest or weed control at 15.625 g/ha: 15.625 g ai/ha; for pest or weed control at 15.625 g/ha / pest or weed control at 250 g/ha: read-out: Velvetleaf damage rating (100=total damage to plant; 0=no damage to plant); for pest or weed control at 62.5 g/ha: 62.5 g ai/ha, 100=total damage to plant, 0=no damage to plant, read-out: Velvetleaf damage rating; for pest or weed control at 250 g/ha: 250 g ai/ha
How it was run: as §2

[12] = test system: barnyardgrass (Echinochloa crus-galli); experiment: Test G Pre-Emergence Protocol; conditions: Echinochloa crus-galli, pre-emergence, 312 h, evaluated after 13 days; for pest or weed control at 15.625 g/ha: 15.625 g ai/ha; for pest or weed control at 15.625 g/ha / pest or weed control at 250 g/ha: read-out: Barnyardgrass damage rating (100=total damage to plant; 0=no damage to plant); for pest or weed control at 62.5 g/ha: 62.5 g ai/ha, 100=total damage to plant, 0=no damage to plant, read-out: Barnyardgrass damage rating; for pest or weed control at 250 g/ha: 250 g ai/ha
How it was run: as §2

Structure (SMILES) | plant injury at 15.625 g/ha (corn (Zea mays) [1]) | plant injury at 62.5 g/ha (corn (Zea mays) [1]) | plant injury at 250 g/ha (corn (Zea mays) [1]) | pest or weed control at 15.625 g/ha [2] | pest or weed control at 62.5 g/ha [2] | pest or weed control at 250 g/ha [2] | pest or weed control at 15.625 g/ha [3] | pest or weed control at 62.5 g/ha [3] | pest or weed control at 250 g/ha [3] | pest or weed control at 15.625 g/ha [4] | pest or weed control at 62.5 g/ha [4] | pest or weed control at 250 g/ha [4] | pest or weed control at 15.625 g/ha [5] | pest or weed control at 62.5 g/ha [5] | pest or weed control at 250 g/ha [5] | pest or weed control at 15.625 g/ha [6] | pest or weed control at 62.5 g/ha [6] | pest or weed control at 250 g/ha [6] | plant injury at 15.625 g/ha (corn (Zea mays) [7]) | plant injury at 62.5 g/ha (corn (Zea mays) [7]) | other results
CN1C[C@@H](c2ccc(C(F)(F)F)cc2)[C@H](C(=O)Nc2ccnc(Cl)c2F)C1=O (racemic) [Compound 1656] | 0% | 0% | 0% | 0% | 20% | 30% | 20% | 30% | 80% | 0% | 0% | 0% | 0% | 0% | 20% | 10% | 10% | 30% | 0% | 0% | plant injury at 250 g/ha (corn (Zea mays) [7]): 0%; pest or weed control at 15.625 g/ha [8]: 0%; pest or weed control at 62.5 g/ha [8]: 0%; pest or weed control at 250 g/ha [8]: 0%; pest or weed control at 15.625 g/ha [9]: 0%; pest or weed control at 62.5 g/ha [9]: 0%; pest or weed control at 250 g/ha [9]: 80%; pest or weed control at 15.625 g/ha [10]: 0%; pest or weed control at 62.5 g/ha [10]: 20%; pest or weed control at 250 g/ha [10]: 0%; pest or weed control at 15.625 g/ha [11]: 0%; pest or weed control at 62.5 g/ha [11]: 0%; pest or weed control at 250 g/ha [11]: 0%; pest or weed control at 15.625 g/ha [12]: 0%; pest or weed control at 62.5 g/ha [12]: 0%; pest or weed control at 250 g/ha [12]: 20%
CN1C[C@@H](c2ccc(C(F)(F)F)cc2)[C@H](C(=O)Nc2cncc(F)n2)C1=O (racemic) [Compound 1657] | 0% | 10% | 20% | 0% | 40% | 60% | 0% | 40% | 70% | 0% | 10% | 30% | 0% | 20% | 20% | 0% | 10% | 40% | 0% | 0% | plant injury at 250 g/ha (corn (Zea mays) [7]): 0%; pest or weed control at 15.625 g/ha [8]: 0%; pest or weed control at 62.5 g/ha [8]: 20%; pest or weed control at 250 g/ha [8]: 50%; pest or weed control at 15.625 g/ha [9]: 0%; pest or weed control at 62.5 g/ha [9]: 60%; pest or weed control at 250 g/ha [9]: 80%; pest or weed control at 15.625 g/ha [10]: 0%; pest or weed control at 62.5 g/ha [10]: 0%; pest or weed control at 250 g/ha [10]: 0%; pest or weed control at 15.625 g/ha [11]: 0%; pest or weed control at 62.5 g/ha [11]: 0%; pest or weed control at 250 g/ha [11]: 0%; pest or weed control at 15.625 g/ha [12]: 0%; pest or weed control at 62.5 g/ha [12]: 10%; pest or weed control at 250 g/ha [12]: 20%
CN1C[C@@H](c2ccc(C(F)(F)F)cc2)[C@H](C(=O)Nc2n[nH]cc2Cl)C1=O (racemic) [Compound 1658] | 0% | 0% | 10% | 0% | 10% | 40% | 0% | 0% | 20% | 0% | 0% | 20% | 0% | 0% | 10% | 0% | 0% | 20% | 0% | 0% | plant injury at 250 g/ha (corn (Zea mays) [7]): 0%; pest or weed control at 15.625 g/ha [8]: 0%; pest or weed control at 62.5 g/ha [8]: 0%; pest or weed control at 250 g/ha [8]: 0%; pest or weed control at 15.625 g/ha [9]: 0%; pest or weed control at 62.5 g/ha [9]: 0%; pest or weed control at 250 g/ha [9]: 0%; pest or weed control at 15.625 g/ha [10]: 0%; pest or weed control at 62.5 g/ha [10]: 0%; pest or weed control at 250 g/ha [10]: 0%; pest or weed control at 15.625 g/ha [11]: 0%; pest or weed control at 62.5 g/ha [11]: 0%; pest or weed control at 250 g/ha [11]: 0%; pest or weed control at 15.625 g/ha [12]: 0%; pest or weed control at 62.5 g/ha [12]: 0%; pest or weed control at 250 g/ha [12]: 0%
